Measured values reported in US20250248955A1, “PHENYL ACRYLIC ACID COMPOUND, AND PREPARATION METHOD AND APPLICATION THEREOF” (LONGIVITRON (SUZHOU) BIOTECHNOLOGY CO., LTD, priority 2022, published 2025).
pIC50: −log10 of the molar value.

Target: ACAT1 (Homo sapiens (Human), UniProt P24752)
Assay: ACAT1 small molecule inhibitor screening (enzyme activity, IC50)
Assay type: biochemical
Details: summary of Table 1; unit given as mol/L
Protocol: ACAT1 can catalyze two molecules of acetyl coenzyme A to reversibly form acetoacetyl coenzyme A. Its activity was measured through the reaction between ACAT1-catalyzed substrate acetoacetyl-coenzyme A and coenzyme A, from which the product acetyl-coenzyme A is produced. Since acetoacetyl-coenzyme A is specifically absorbed in a specific spectrum, the impact on the enzyme activity of ACAT1 can be reflected through the detection of an increase or decrease of absorption in a specific spectrum.
ACAT1 recombinant proteins were expressed and purified by Escherichia coli, and the concentration of ACAT1 recombinant proteins obtained was 1 mg/mL. The buffers adopted for ACAT1 small molecule inhibitor screening were 50 mM Tris-HCl (pH 8.1), 20 mM MgCl2, and 40 mM KCl. In 200 μL of enzyme catalytic system, 1 μL of ACAT1 recombinant proteins, the substrate acetyl-coenzyme A whose final concentration was changed from 25 μM to 100 μM through a CPM probe, and small molecule inhibitors at different concentrations were added, respectively. The measurement was carried out through a microplate reader (Biotek Synergy H1) and using excitation light at 355 nm and emission light at 460 nm, and the IC50 of the inhibitors was calculated through software Prism 7.0.

ACAT1, sequence (P24752 34-427): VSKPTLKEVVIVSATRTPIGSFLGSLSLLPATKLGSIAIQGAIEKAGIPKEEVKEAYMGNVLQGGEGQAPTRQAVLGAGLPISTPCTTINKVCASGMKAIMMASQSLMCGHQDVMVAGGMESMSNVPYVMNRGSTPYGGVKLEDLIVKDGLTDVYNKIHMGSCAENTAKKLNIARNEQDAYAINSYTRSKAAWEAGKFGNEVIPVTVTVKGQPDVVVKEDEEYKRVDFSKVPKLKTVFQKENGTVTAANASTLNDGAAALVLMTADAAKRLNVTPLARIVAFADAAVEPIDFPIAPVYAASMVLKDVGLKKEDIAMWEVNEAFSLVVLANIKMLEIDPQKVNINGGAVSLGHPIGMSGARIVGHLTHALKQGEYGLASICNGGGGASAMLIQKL

In the case of COc1ccc(CCOc2ccc(NC(=O)/C=C/c3ccc(O)c(O)c3)cc2)cc1 [Compound M5], the pIC50 was greater than 4.00.
Compound Cc1ccc(CCOc2ccc(NC(=O)/C=C/c3ccc(O)c(O)c3)cc2)cc1 [Compound M7] has a pIC50 greater than 4.00.
In the case of COc1ccc(CCOc2ccc(NC(=O)/C=C/c3ccc(O)c(O)c3)cc2)cc1OC [Compound M9], the pIC50 was greater than 4.00.
COc1cc(CCOc2ccc(NC(=O)/C=C/c3ccc(O)c(O)c3)cc2)cc(OC)c1OC [Compound M10] was tested, and the pIC50 was greater than 4.00.
For COCOc1ccc(/C=C/C(=O)Nc2ccc(OCCc3ccc(OC)cc3)cc2)cc1OCOC [Compound M12], the pIC50 was greater than 4.00.
COCOc1ccc(/C=C/C(=O)Nc2ccc(OCCc3cc(OC)c(OC)c(OC)c3)cc2)cc1OCOC [Compound M17] gave a pIC50 greater than 4.00.
